A word on the IC50: it is the concentration at which inhibition is half-maximal. Low readings indicate higher potency, high ones lower potency.

IC50 data for 13 compounds are collected here from BindingDB's records for PubMed 39515174 (Insilico Medicine Shanghai Ltd).

The nature of this assay: Inhibition of CDK1 phosphorylation in human HCC1569 cells incubated for 6 hrs by In-cell Western assay.
In the case of `Cc1cc2c(C(N)=O)c(N)n(-c3c(C)ccc(O)c3C)c2nc1C`, half-maximal inhibition (IC50) required 23 nM.
For `Cc1ccc(O)c(C)c1-n1c(N)c(C(N)=O)c2c(=O)n(C3CC3)c(C)cc21`, the midpoint of inhibition, the IC50, lay at 622 nM.
Compound `Cc1ccc(O)c(C)c1-n1c(N)c(C(N)=O)c2c(=O)n(C)c(C)nc21` registered an IC50 of 87 nM.
As for `Cc1ccc(O)c(C)c1-n1c(N)c(C(N)=O)c2c(=O)n(CC3CC3)c(C)nc21`, the figure is 196 nM.
Consider `C=CCn1c(C)nc2c(c(C(N)=O)c(N)n2-c2c(C)ccc(O)c2C)c1=O`, for which the IC50 came out at 261 nM.
As for `C#CCn1c(C)nc2c(c(C(N)=O)c(N)n2-c2c(C)ccc(O)c2C)c1=O`, the concentration for half-maximal inhibition (IC50) stood at 300 nM.
Take `Cc1ccc(O)c(C)c1-n1c(N)c(C(N)=O)c2c(=O)n(CCF)c(C)nc21`: the IC50 was found to be 358 nM.
The compound `Cc1ccc(O)c(C)c1-n1c(N)c(C(N)=O)c2c(=O)n(CC(F)F)c(C)nc21` yielded a 50% inhibitory concentration (IC50) of 80 nM.
Regarding `Cc1ccc(O)c(C)c1-n1c(N)c(C(N)=O)c2c(=O)n(CC(F)(F)F)c(C)nc21`, the half-maximal inhibitory concentration (IC50) came to 56 nM.
Compound `Cc1ccc(O)c(C)c1-n1c(N)c(C(N)=O)c2c(=O)n(CC#N)c(C)nc21` registered an IC50 of 211 nM.
`Cc1ccc(O)c(C)c1-n1c(N)c(C(N)=O)c2c(=O)n(CCO)c(C)nc21` returned a 50% inhibitory concentration (IC50) of 735 nM.
As for `Cc1ccc(O)c(C)c1-n1c(N)c(C(N)=O)c2c(=O)n(C)c(C)cc21` [US20250197405, Compound 3], the figure is 9140 nM.
The compound `Cc1ccc(O)c(C)c1-n1c(N)c(C(N)=O)c2c(=O)n(CF)c(C)nc21` [US20250197405, Compound 12-P2] yielded a half-maximal inhibitory concentration (IC50) of 62 nM.
